This experiment concerns the target human metabotropic Glutamate 4 receptor (mGluR4) (Homo sapiens (Human), UniProt Q14833). Kind of experiment: Assay A: in vitro testing of mGluR4 potency (glutamate-induced cAMP lowering, HTRF cAMP). The conditions noted are these: HEK293 cells overexpressing human mGluR4; 10 uM L-glutamic acid, 1 uM forskolin; compounds of the present invention. The class given is cell-based. Here is the method:
A. In Vitro Testing of mGluR4 Potency
The in vitro activity of the compounds according to the invention may be investigated as follows:
The HEK293 cell overexpressing the human metabotropic Glutamate 4 receptor are thawed at 37° C. and immediately diluted with cell culture medium. After centrifugation, the cell pellet is re-suspended in medium and then distributed from a stirred spinner flask into the wells of the assay plate. The plates are incubated for one hour at room temperature before they are incubated for 24 hours at 37° C./5% CO2. After washing the cells in the plate three times with 80 uL HBSS/HEPES buffer (10 uL buffer remained in the wells after washing), 5 uL per well of compounds diluted in HBSS/HEPES buffer containing 0.2% BSA (final concentration: 0.1%) and 1 mM IBMX (final concentration: 0.5 mM) are added to the wells of the assay plate. Thereafter 5 uL per well of L-Glutamic acid (final concentration: 10 uM), forskolin (final concentration: 1 uM) and 1 mM IBMX (final concentration: 0.5 mM) dissolved in HBSS/HEPES buffer containing 0.2% BSA (final concentration: 0.1%) are added to the assay plate (final DMSO concentration: 1%). Several wells of the assay plate are used either for the positive and the negative controls or for the cAMP standard curve. The assay plate is incubated for 30 minutes at room temperature. Then 5 ul per well of Anti-cAMP-Antibody-d2 solution and 5 ul per well of cAMP-Europium Cryptate dilution are added to all wells of the plate and the plate is incubated another 60 minutes light protected at room temperature. The emission at 615 nm and 665 nm (Excitation wavelength: 320 nm) are measured on the EnVision™ reader (Perkin Elmer). The ratio between the emission at 665 nm and 615 is calculated by the reader. The whole assay is performed in the dark or under green light.
The cAMP standard is prepared by diluting the cAMP stock solution with HBSS/Hepes buffer: 5 μl/well of the cAMP dilutions (in HBSS/Hepes buffer containing 1 mM IBMX and 0.2% BSA—final concentration: 0.5 mM IBMX and 0.1% BSA) are added to 10 ul/well HBSS/Hepes buffer plus 5 ul/well 4% DMSO in HBSS/Hepes containing 0.2% BSA (final DMSO concentration: 1%—like in the wells containing compounds) in the wells of the assay plate. The final cAMP concentrations in the assay plate are: 0, 0.17, 0.69, 2.78, 11.1, 44.5, 178, and 712 nM (two wells/cAMP concentration).
Each assay microtiter plate contained also wells with vehicle controls instead of compound as controls for L-Glutamic acid induced signal (negative control; 100% CTL; 10 uM L-Glutamic acid+1 uM forskolin+0.5 mM IBMX+1% DMSO) and wells with vehicle controls without L-Glutamic acid as controls for non-specific changes in signal (positive control; 0% CTL; 0 uM L-Glutamic acid+1 uM forskolin+0.5 mM IBMX+1% DMSO).
The analysis of the data is performed by the calculation the ratio between the emission at 665 nm and the emission at 615 nm (Em665/Em615 ratio). Thereafter the signals of the compounds are normalized using the positive and negative controls by the following formula:
PoC=100×((Signal Sample−Positive Control)/(Negative Control−Positive Control))
(In general: Time-resolved FRET reads energy transfer from a long-lived donor to a nearby acceptor.)

Structures are written as SMILES.

In general, IC50 refers to the point on the concentration scale where inhibition reaches its midpoint. A high value points to lower potency.

Chain of human metabotropic Glutamate 4 receptor (mGluR4) (Q14833 33-912): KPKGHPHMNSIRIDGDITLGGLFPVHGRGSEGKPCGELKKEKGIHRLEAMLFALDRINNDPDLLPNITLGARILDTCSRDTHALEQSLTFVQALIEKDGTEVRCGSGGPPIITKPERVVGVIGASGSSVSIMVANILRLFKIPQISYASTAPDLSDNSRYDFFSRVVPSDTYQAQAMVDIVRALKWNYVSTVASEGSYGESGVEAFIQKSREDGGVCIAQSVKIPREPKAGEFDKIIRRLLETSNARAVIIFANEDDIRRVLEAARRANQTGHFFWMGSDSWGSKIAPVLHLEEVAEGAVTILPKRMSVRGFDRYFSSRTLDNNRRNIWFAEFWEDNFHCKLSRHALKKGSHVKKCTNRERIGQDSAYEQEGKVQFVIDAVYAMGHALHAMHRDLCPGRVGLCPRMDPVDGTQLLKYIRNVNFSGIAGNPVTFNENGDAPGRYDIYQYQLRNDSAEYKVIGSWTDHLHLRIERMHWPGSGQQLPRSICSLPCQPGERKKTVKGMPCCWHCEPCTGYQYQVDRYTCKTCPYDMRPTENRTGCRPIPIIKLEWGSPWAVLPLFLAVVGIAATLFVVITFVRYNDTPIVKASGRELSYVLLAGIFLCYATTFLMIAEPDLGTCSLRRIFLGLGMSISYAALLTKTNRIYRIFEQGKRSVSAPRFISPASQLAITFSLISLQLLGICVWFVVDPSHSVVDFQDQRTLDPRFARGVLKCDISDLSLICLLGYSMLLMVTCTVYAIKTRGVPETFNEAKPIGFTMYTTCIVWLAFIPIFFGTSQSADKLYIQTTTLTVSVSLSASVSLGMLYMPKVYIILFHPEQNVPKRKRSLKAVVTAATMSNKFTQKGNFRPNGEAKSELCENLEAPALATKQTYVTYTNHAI

Consider `COCCn1c(C(NC(=O)c2cnc(C)cn2)C2CCCO2)nc2cc(C(F)(F)F)ccc21` (stereo not shown) [Example 19-2, N-{[1-(2-methoxyethyl)-5-(trifluoromethyl)-1H-1,3-benzodiazol-2-yl](oxolan-2-yl)methyl}-5-methylpyrazine-2-carboxamide], for which it took 62 nM to reach half-maximal inhibition (IC50). `COCCn1c([C@@H](NC(=O)c2cnc(C)cn2)C2CC2)nc2cc(Cl)c(F)cc21` [Example 21] registered an IC50 of 3 nM. As for `CO[C@H](C)[C@H](NC(=O)c1cnc(C)cn1)c1nc2cc(C(F)(F)F)ccc2n1C` [Example 22, N-[(1R,2R)-2-methoxy-1-[1-methyl-5-(trifluoromethyl)-1H-1,3-benzodiazol-2-yl]propyl]-5-methylpyrazine-2-carboxamide], 6 nM corresponded to half-maximal inhibition (IC50). Next, `COCCn1c([C@@H](NC(=O)c2cnc(C(F)F)cn2)[C@@H]2CCOC2)nc2cc(OC(F)(F)F)ccc21` [Example 23, 5-(difluoromethyl)-N-[(S)-[1-(2-methoxyethyl)-5-(trifluoromethoxy)-1H-1,3-benzodiazol-2-yl][(3S)-oxolan-3-yl]methyl]pyrazine-2-carboxamide]: 4 nM. The same measure for `COCCn1c([C@H](CC2CC2)NC(=O)c2cnc(C)cn2)nc2cc(F)ccc21` [Example 24, N-[(1S)-2-cyclopropyl-1-[5-fluoro-1-(2-methoxyethyl)-1H-1,3-benzodiazol-2-yl]ethyl]-5-methylpyrazine-2-carboxamide]: 7 nM; for `CCn1c([C@@H](NC(=O)c2cnc(C)cn2)C2CC2)nc2cc(Cl)ccc21` [Example 25, N-[(S)-(5-chloro-1-ethyl-1H-1,3-benzodiazol-2-yl)(cyclopropyl)methyl]-5-methylpyrazine-2-carboxamide]: 3 nM; for `CO[C@H](C)[C@H](NC(=O)c1cnc(C)cn1)c1nc2cc(Br)c(F)cc2n1C` [Example 26, N-[(1R,2R)-1-(5-bromo-6-fluoro-1-methyl-1H-1,3-benzodiazol-2-yl)-2-methoxypropyl]-5-methylpyrazine-2-carboxamide]: 7 nM.

Regarding `Cc1cnc(C(=O)N[C@H](c2nc3cc(F)ccc3n2CC(F)(F)F)C2CC2)cn1` [Example 27, N-[(S)-cyclopropyl[5-fluoro-1-(2,2,2-trifluoroethyl)-1H-1,3-benzodiazol-2-yl]methyl]-5-methylpyrazine-2-carboxamide], half-maximal inhibition (IC50) was put at 5 nM.

`COCCn1c([C@@H](NC(=O)c2cnc(C)cn2)[C@@H](C)OC(F)F)nc2cc(F)c(F)cc21` [Example 28, N-[(1R,2R)-1-[5,6-difluoro-1-(2-methoxyethyl)-1H-1,3-benzodiazol-2-yl]-2-(difluoromethoxy)propyl]-5-methylpyrazine-2-carboxamide]: the IC50 came out at 10 nM. `CO[C@H](C)[C@H](NC(=O)c1cnc(C)cn1)c1nc2cc(Cl)ccc2n1C` [Example 29, N-[(1R,2R)-1-(5-chloro-1-methyl-1H-1,3-benzodiazol-2-yl)-2-methoxypropyl]-5-methylpyrazine-2-carboxamide] returned an IC50 of 11 nM.

`Cn1c([C@@H](NC(=O)c2cnc(C(F)F)cn2)C2CC2)nc2cc(F)ccc21` [Example 30, N-[(S)-cyclopropyl (5-fluoro-1-methyl-1H-1,3-benzodiazol-2-yl)methyl]-5-(difluoromethyl)pyrazine-2-carboxamide] had an IC50 of 18 nM. As for `Cc1cnc(C(=O)N[C@H](c2nc3cc(C(F)(F)F)ccc3n2C)C2CC2)cn1` [Example 31, N-[(S)-cyclopropyl[1-methyl-5-(trifluoromethyl)-1H-1,3-benzodiazol-2-yl]methyl]-5-methylpyrazine-2-carboxamide], the IC50 was found to be 6 nM. Next, `Cc1cnc(C(=O)N[C@H](c2nc3cc(C(F)(F)F)ccc3n2C)[C@]2(O)CCCOC2)cn1` [Example 32, N-[(R)-[(3R)-3-hydroxyoxaN-3-yl][1-methyl-5-(trifluoromethyl)-1H-1,3-benzodiazol-2-yl]methyl]-5-methylpyrazine-2-carboxamide]: 16 nM; `CCn1c([C@@H](NC(=O)c2cnc(C(F)F)cn2)C2CC2)nc2c(C)c(C#N)ccc21` [Example 33, N-[(S)-(5-cyano-1-ethyl-4-methyl-1H-1,3-benzodiazol-2-yl)(cyclopropyl)methyl]-5-(difluoromethyl)pyrazine-2-carboxamide]: 4 nM; `Cc1cnc(C(=O)N[C@H](c2nc3cc(Br)ccc3n2C)C2CC2)cn1` [Example 34, N-[(S)-(5-bromo-1-methyl-1H-1,3-benzodiazol-2-yl)(cyclopropyl)methyl]-5-methylpyrazine-2-carboxamide]: 5 nM.

`COCCn1c([C@@H](NC(=O)c2cnc(C)cn2)C2CC2)nc2cc(C(F)(F)F)ccc21` [Example 35, N-[(S)-cyclopropyl[1-(2-methoxyethyl)-5-(trifluoromethyl)-1H-1,3-benzodiazol-2-yl]methyl]-5-methylpyrazine-2-carboxamide]: the IC50 worked out at 2 nM. The same measure for `CCn1c([C@@H](NC(=O)c2cnc(C)cn2)C2CC2)nc2cc(C(F)(F)F)ccc21` [Example 36, N-[(S)-cyclopropyl[1-ethyl-5-(trifluoromethyl)-1H-1,3-benzodiazol-2-yl]methyl]-5-methylpyrazine-2-carboxamide]: 3 nM; for `Cc1cnc(C(=O)N[C@H](c2nc3cc(F)ccc3n2CC(F)F)C(C)C)cn1` [Example 37, N-[(1S)-1-[1-(2,2-difluoroethyl)-5-fluoro-1H-1,3-benzodiazol-2-yl]-2-methylpropyl]-5-methylpyrazine-2-carboxamide]: 9 nM. `CCn1c([C@@H](NC(=O)c2cnc(C)cn2)C2CC2)nc2c(C)c(C#N)ccc21` [Example 38, N-[(S)-(5-cyano-1-ethyl-4-methyl-1H-1,3-benzodiazol-2-yl)(cyclopropyl)methyl]-5-methylpyrazine-2-carboxamide] yielded an IC50 of 5 nM. On to `CCn1c([C@@H](NC(=O)c2cnc(C)cn2)C(C)(C)O)nc2cc(F)ccc21` [Example 39, N-[(1R)-1-(1-ethyl-5-fluoro-1H-1,3-benzodiazol-2-yl)-2-hydroxy-2-methylpropyl]-5-methylpyrazine-2-carboxamide], for which the IC50 is 28 nM. As to `COCCn1c([C@@H](NC(=O)c2cnc(C(F)F)cn2)[C@@H]2CCCO2)nc2cc(OC(F)(F)F)ccc21` [Example 40, 5-(difluoromethyl)-N-[(R)-[1-(2-methoxyethyl)-5-(trifluoromethoxy)-1H-1,3-benzodiazol-2-yl][(2S)-oxolan-2-yl]methyl]pyrazine-2-carboxamide], the IC50 was 2 nM.

For the compound `CO[C@H](C)[C@H](NC(=O)c1cnc(C)cn1)c1nc2cc(OC(F)(F)F)ccc2n1CCOC(C)C` [Example 41, N-[(1R,2R)-2-methoxy-1-{1-[2-(propan-2-yloxy)ethyl]-5-(trifluoromethoxy)-1H-1,3-benzodiazol-2-yl}propyl]-5-methylpyrazine-2-carboxamide], the midpoint of inhibition, the IC50, lay at 2 nM.

`Cc1cnc(C(=O)N[C@H](c2nc3c(Cl)c(Br)ccc3n2C)C2CC2)cn1` [Example 42, N-[(S)-(5-bromo-4-chloro-1-methyl-1H-1,3-benzodiazol-2-yl)(cyclopropyl)methyl]-5-methylpyrazine-2-carboxamide] yielded a half-maximal inhibitory concentration (IC50) of 2 nM. `CO[C@H](C)[C@H](NC(=O)c1cnc(C)cn1)c1nc2cc(OC(F)(F)F)ccc2n1C` [Example 43, N-[(1R,2R)-2-methoxy-1-[1-methyl-5-(trifluoromethoxy)-1H-1,3-benzodiazol-2-yl]propyl]-5-methylpyrazine-2-carboxamide] returned an IC50 of 10 nM. The same measure for `Cc1cnc(C(=O)N[C@H](c2nc3c(C)c(C#N)ccc3n2CC(F)F)C2CC2)cn1` [Example 44, N-[(S)-[5-cyano-1-(2,2-difluoroethyl)-4-methyl-1H-1,3-benzodiazol-2-yl](cyclopropyl)methyl]-5-methylpyrazine-2-carboxamide]: 5 nM.
